Assay results taken from patent US20200179327A1, “USE OF PHENOLIC COMPOUNDS FROM OLEA EUROPAEA” (McCord Research, Inc., priority 2017, published 2020).

Experiments:
[1] = biological target: T1, COX-1 (Ovis aries, UniProt P05979); test: COX-1/2 inhibitor screening kit (BioVision), COX-1; format: biochemical; conditions: 10-dose, 2-fold dilution from 1000 μM; read-out: COX-1 inhibition IC50
T1 construct: purchased BioVision
T1 sequence (P05979 25-600): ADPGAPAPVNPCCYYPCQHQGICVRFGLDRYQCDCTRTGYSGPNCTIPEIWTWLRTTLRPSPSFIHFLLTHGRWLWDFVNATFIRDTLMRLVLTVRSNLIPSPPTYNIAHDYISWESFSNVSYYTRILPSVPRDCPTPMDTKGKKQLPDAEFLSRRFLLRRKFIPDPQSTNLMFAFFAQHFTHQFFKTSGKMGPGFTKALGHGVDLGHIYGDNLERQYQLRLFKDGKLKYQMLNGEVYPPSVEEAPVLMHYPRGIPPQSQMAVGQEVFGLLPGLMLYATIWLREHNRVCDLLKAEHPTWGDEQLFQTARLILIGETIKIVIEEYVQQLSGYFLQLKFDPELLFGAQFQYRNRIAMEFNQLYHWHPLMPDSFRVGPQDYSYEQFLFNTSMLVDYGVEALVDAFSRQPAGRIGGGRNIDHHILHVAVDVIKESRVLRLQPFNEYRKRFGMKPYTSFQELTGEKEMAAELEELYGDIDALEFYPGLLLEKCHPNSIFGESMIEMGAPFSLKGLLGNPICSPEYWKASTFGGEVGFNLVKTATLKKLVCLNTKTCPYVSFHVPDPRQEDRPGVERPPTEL
Procedure: (§1) Inhibition of individual COX-1 and COX-2 enzymes by MMBHTE and oleocanthal was measured using the COX-1/2 inhibitor screening kit (BioVision, Milpatas, Calif., USA), according to the manufacturer's instructions. […] The production of prostaglandin G2, the intermediate product generated by the COX enzyme in the presence of arachidonic acid is measured by coupling with HRP and COX substrate and fluorescence was measured using the CLARIOstar microplate reader at Ex/Em=535/587 nm. Data is represented at the percentage of COX enzymatic activity inhibition relative to the log of the compound and a curve fit for the control compound. Corresponding IC50 values were calculated.
(§2) FIG. 6A and FIG. 6B show the inhibition activities of MMBHTE and Oleocanthal on COX-1 and COX-2, respectively. The data shown in FIG. 6A and FIG. 6B indicates all the test samples fell within the detectable range. The data shown in FIG. 6A and FIG. 6B is represented as the percentage of COX enzymatic activity inhibition relative to the log of the concentrations and best-fit curves for MMBHTE and Oleocanthal. Corresponding IC50 values were calculated. […] Therefore, MMBHTE is a […] COX-1 and COX-2 inhibitor.

[2] = biological target: T2, COX-2 (Homo sapiens, UniProt P35354); test: COX-1/2 inhibitor screening kit (BioVision), COX-2; format: biochemical; conditions: 10-dose, 2-fold dilution from 1000 μM; read-out: COX-2 inhibition IC50
T2 construct: purchased BioVision
T2 sequence (P35354 18-604): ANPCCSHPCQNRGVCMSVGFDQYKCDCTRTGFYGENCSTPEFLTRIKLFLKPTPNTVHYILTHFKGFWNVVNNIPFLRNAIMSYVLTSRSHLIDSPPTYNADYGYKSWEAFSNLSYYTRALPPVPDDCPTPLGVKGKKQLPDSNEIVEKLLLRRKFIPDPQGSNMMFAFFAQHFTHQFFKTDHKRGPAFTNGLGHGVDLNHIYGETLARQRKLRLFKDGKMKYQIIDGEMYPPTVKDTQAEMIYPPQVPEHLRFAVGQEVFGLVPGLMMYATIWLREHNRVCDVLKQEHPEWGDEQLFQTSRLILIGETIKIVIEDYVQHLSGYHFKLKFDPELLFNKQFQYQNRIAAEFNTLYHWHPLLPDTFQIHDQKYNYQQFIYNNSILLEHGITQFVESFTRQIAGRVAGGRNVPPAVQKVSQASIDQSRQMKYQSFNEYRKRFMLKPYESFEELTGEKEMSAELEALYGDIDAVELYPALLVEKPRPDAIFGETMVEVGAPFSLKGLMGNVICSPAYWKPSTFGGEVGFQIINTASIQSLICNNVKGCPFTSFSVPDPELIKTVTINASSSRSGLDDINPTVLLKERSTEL
Procedure: as §1, §2

[3] = biological target: COX-1 (Homo sapiens, UniProt P23219); conditions: in vitro; cited from earlier work
COX-1 (Homo sapiens, UniProt P23219), sequence (P23219 24-599): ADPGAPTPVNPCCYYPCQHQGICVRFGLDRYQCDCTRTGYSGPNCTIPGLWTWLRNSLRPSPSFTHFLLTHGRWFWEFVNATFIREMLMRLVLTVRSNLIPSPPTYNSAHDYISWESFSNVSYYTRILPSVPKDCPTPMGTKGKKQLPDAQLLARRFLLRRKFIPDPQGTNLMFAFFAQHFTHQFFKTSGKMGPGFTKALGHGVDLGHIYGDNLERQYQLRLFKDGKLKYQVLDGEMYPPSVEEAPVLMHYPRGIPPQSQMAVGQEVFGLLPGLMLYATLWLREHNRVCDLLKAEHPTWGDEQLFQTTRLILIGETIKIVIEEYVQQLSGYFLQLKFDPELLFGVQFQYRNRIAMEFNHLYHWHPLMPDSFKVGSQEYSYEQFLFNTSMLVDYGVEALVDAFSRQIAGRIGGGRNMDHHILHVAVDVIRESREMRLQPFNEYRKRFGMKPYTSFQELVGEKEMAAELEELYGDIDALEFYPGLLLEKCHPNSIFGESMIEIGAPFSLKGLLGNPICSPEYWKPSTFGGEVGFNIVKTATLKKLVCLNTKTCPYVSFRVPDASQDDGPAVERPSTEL

[4] = biological target: T2, COX-2; conditions: in vitro; cited from earlier work
[5] = system: lipoxygenase; conditions: in vitro; cited from earlier work
[6] = system: peripheral blood mononuclear cells (PBMC); test: Cell viability/proliferation, Cell-Titer Blue, PBMC; format: cell-based, human; conditions: 0-800 μM, 24, 48 or 72 hours
Procedure: (§3) Human peripheral blood mononuclear cells (PBMCs) were fractionated using the Ficoll Plaque fractionation method from whole blood obtained from the Australian Red Cross Blood Bank (ARCB) under ethic approval (#304/12). Cells were harvested fresh on the day of the experiments and maintained in complete-RPMI-1640 medium supplemented with 10% FBS, 2 mM L-glutamine and 20 μg/mL gentamicin at 37° C., 5% (v/v) CO2. Human aortic endothelial cells (HAECs, ATCC) and the equivalent cells taken for patients with Type II diabetes (DII-HAECs, ATCC) were cultured in endothelial cell growth medium (ECM) supplemented with 100 U/ml penicillin, 100 μg/ml streptomycin, 0.25 μg/ml fungizone, 2 mM L-glutamine, 5 U/ml heparin, 30-50 μg/ml endothelial cell growth supplement (Technoclone, Vienna, Austria). All cells were passaged by typsination and seeded into 6 well culture dishes at cell densities of 1×10^6 cells per well; at 37° C., 5% (v/v) CO2. […] Cell viability was measured using the Cell-Titer Blue® Assay kit (Promega, Madison, Wis., USA) according to the manufacturer's instructions. Cell-Titer Blue reagent was added to each well and incubated for 4 hours at 37° C., 5% CO2, before reading fluorescence intensity (550 nm excitation; 615 nm emission) using the CLARIOstar (BMG LABTECH, Offenburg, Germany) microplate reader. […]

[7] = system: primary skin fibroblasts (BJ); test: Cell viability/proliferation, Cell-Titer Blue, BJ; format: cell-based, human; conditions: 0-800 μM, 24, 48 or 72 hours
[8] = system: primary human aortic endothelial cells from a healthy patient (h-HAEC); test: Cell viability/proliferation, Cell-Titer Blue, h-HAEC; format: cell-based; conditions: 0-800 μM, 24, 48 or 72 hours
Procedure: as §3

[9] = system: human aortic endothelial cells from patient with Type II diabetes (DII-HAEC); test: Cell viability/proliferation, Cell-Titer Blue, DII-HAEC; format: cell-based; conditions: 0-800 μM, 24, 48 or 72 hours
Procedure: as §3

[10] = biological target: T3, lysine-specific demethylase 1 (LSD1) (Homo sapiens, UniProt O60341); test: EpiQuik Histone Demethylase LSD1 inhibitor screening assay; format: biochemical; conditions: 10-dose, 2-fold dilution from 200 μM; read-out: LSD1 enzyme activity inhibition IC50
T3 construct: purchased EpiGentek

[11] = biological target: T4, monoamine oxidase A (MAO-A) (Homo sapiens, UniProt P21397); test: Monoamine Oxidase A (MAO-A) Inhibitor Screening Kit; format: biochemical; conditions: 10-dose, 2-fold dilution from 100 μM; substrate tyramine; read-out: MAO-A inhibition IC50
T4 construct: purchased Sigma-Aldrich
T4 sequence (P21397 1-527): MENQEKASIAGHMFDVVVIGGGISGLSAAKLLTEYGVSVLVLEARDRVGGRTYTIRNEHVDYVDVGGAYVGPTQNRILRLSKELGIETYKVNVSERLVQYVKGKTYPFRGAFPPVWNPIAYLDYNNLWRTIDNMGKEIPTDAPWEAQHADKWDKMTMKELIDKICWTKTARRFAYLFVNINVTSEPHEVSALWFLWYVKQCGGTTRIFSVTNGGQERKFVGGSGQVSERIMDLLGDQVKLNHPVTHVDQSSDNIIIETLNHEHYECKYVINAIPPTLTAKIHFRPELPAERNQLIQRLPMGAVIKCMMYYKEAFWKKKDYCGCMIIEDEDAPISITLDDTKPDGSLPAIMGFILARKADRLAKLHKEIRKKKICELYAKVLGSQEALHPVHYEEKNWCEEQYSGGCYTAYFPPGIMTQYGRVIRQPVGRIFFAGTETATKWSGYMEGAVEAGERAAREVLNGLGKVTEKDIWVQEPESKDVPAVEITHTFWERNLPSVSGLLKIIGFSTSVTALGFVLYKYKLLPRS
Procedure: The production of H2O2 generated by the oxidative deamination of the MAO substrate tyramine was measured fluorometrically using the CLARIOstar microplate reader at Ex/Em=535/587 nm. Data is represented as the percentage of MAO enzymatic activity inhibition relative to the log of the compound and a curve fit for the control compound. Corresponding IC50 values were calculated.

IC50 [1]	IC50 [2]	IC50 [10]	IC50 [11]	SMILES	inhibition of COX-1 [3]	inhibition of COX-2 [4]	effect on lipoxygenase [5]	toxicity profile (cell viability) [6]	toxicity profile (cell viability) [7]	toxicity profile (cell viability) [8]	toxicity profile (cell viability) [9]
430 ± 50 nM	352000 ± 7700 nM			C/C=C(/C=O)[C@@H](CC=O)CC(=O)OCCc1ccc(O)cc1 [Oleocanthal]	dose-dependent inhibitor	dose-dependent inhibitor	no effect				
1720 ± 90 nM	81600 ± 7700 nM	11.9 nM	443 ± 158 nM	COC(=O)[C@H](O)CC(=O)OCCc1ccc(O)c(O)c1 (stereo in doubt) [MMBHTE, methyl malate-β-hydroxytyrosol ester]				very favorable toxicity profile	very favorable toxicity profile	very favorable toxicity profile	very favorable toxicity profile
		21.8 nM	39100 ± 31500 nM	OCCc1ccc(O)c(O)c1 [HT, hydroxytyrosol, reference compound]							
